Experiments:
[1] = Drug uptake in tumor of nude mouse xenografted with human LOX cells at 200 mg/kg, po measured at 8 hrs; type: ADME, organism-based, Neoplasm; parameters: dose 200 mg/kg, route oral; conditions: read-out: Drug uptake
[2] = Oral bioavailability in C57 mouse at 10 mg/kg; type: ADME, organism-based; conditions: in vivo
[3] = Tmax in C57 mouse at 10 mg/kg, po; type: ADME, organism-based; parameters: dose 10 mg/kg, route oral; conditions: in vivo
[4] = AUC in C57 mouse at 10 mg/kg, po; type: ADME, organism-based; parameters: dose 10 mg/kg, route oral; conditions: plasma
[5] = Plasma concentration in nude mouse xenografted with human LOX cells at 200 mg/kg, po measured at 8 hrs; type: ADME, organism-based; parameters: dose 200 mg/kg, route oral
[6] = Cmax in C57 mouse at 10 mg/kg, po; type: ADME, organism-based; parameters: dose 10 mg/kg, route oral; conditions: in vivo
Liver microsomes = conditions: human, up to 10 µM
[7] = Plasma concentration in nude mouse xenografted with human LOX cells at 100 mg/kg, po measured at 8 hrs; type: ADME, organism-based; parameters: dose 100 mg/kg, route oral
[8] = Drug uptake in tumor of nude mouse xenografted with human LOX cells at 100 mg/kg, po measured at 8 hrs; type: ADME, organism-based, Neoplasm; parameters: dose 100 mg/kg, route oral; conditions: read-out: Drug uptake

CN[C@@H](C)C(=O)N[C@@H]1C(=O)N(Cc2c(C)ccc3ccccc23)c2ccc(C#N)cc2N(C(C)=O)[C@H]1C.Cl
concentration at 8 h [1]: 7.7 µM
bioavailability [2]: 28%
Tmax [3]: 0.25 h
AUC [4]: 7870 ng·h/mL
concentration at 8 h [5]: 5 µM
Cmax [6]: 823 ng/mL

CN[C@@H](C)C(=O)N[C@@H]1C(=O)N(Cc2c(OC)ccc3ccccc23)c2ccc(C#N)cc2N(C(C)=O)[C@H]1C.Cl
bioavailability [2]: 8%
Tmax [3]: 4 h
AUC [4]: 5980 ng·h/mL
Cmax [6]: 873 ng/mL
Stability (Liver microsomes): Stable

CN[C@@H](C)C(=O)N[C@H](C(=O)N1CCC[C@H]1c1nc(C(=O)c2ccc(F)cc2)cs1)C1CCCCC1 [LCL-161]
concentration at 8 h [7]: 3.3 µM
concentration at 8 h [8]: 18.4 µM

Source: ChEMBL document CHEMBL2434833, “Optimization of benzodiazepinones as selective inhibitors of the X-linked inhibitor of apoptosis protein (XIAP) second baculovirus IAP repeat (BIR2) domain” (J Med Chem, 2013)
